From US10584117B2, “1,3,4-oxadiazole amide derivative compound as histone deacetylase 6 inhibitor, and pharmaceutical composition containing same” (Chong Kun Dang Pharmaceutical Corp., priority 2015, dated 2020) come the findings set out here.

As a reminder, the IC50 is the concentration that inhibits the measured activity by half.

The experiment concerns the target T1, human recombinant HDAC6 (Homo sapiens, UniProt Q9UBN7).
T1 construct: purchased Calbiochem 382180
T1 sequence (Q9UBN7 1-1215): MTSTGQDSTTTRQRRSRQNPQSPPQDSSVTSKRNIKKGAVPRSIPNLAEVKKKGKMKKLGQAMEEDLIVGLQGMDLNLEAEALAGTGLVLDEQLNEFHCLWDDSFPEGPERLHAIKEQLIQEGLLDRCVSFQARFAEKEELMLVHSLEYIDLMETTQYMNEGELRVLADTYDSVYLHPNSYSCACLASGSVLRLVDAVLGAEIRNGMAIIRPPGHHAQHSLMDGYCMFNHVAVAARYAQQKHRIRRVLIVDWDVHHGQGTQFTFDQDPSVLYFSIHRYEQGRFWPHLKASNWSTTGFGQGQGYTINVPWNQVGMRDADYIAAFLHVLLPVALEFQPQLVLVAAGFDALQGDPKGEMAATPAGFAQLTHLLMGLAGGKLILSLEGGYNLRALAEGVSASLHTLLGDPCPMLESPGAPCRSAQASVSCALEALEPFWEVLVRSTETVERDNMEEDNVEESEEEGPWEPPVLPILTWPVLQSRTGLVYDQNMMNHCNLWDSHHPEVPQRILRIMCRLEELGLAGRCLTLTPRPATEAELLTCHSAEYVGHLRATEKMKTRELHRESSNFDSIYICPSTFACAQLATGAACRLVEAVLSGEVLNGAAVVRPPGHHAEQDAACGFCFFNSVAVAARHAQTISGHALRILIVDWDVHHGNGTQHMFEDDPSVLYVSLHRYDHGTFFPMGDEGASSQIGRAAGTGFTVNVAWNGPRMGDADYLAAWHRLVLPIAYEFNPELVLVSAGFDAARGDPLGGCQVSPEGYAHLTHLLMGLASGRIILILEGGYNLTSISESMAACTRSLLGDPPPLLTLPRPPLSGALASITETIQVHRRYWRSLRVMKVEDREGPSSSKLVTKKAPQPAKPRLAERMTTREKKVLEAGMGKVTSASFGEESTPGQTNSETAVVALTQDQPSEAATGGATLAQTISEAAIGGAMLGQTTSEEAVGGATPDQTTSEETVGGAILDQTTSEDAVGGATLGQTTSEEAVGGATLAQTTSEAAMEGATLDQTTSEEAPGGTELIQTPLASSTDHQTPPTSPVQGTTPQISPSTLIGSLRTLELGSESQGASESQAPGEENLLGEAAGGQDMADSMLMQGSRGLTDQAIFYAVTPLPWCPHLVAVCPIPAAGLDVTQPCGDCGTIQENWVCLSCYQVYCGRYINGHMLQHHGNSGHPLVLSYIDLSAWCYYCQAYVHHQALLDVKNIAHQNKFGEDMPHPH
As to the kind of experiment: HDAC enzyme activity inhibition assay (HDAC6, fluorimetric kit). The note with it: for HDAC6 selectivity (fold): HDAC6 versus HDAC1; for IC50: same protocol as the HDAC1 test. The format is biochemical. Here is the method:
In order to examine the HDAC6 selectivity of the compounds of formula I of the present invention by HDAC1 and HDAC6 enzymatic activity inhibition assays, an experiment was performed using a conventional substance as a control. HDAC enzyme activity was measured using a HDAC Fluorimetric Drug Discovery Kit (BML-AK511, 516) from Enzo Life Science. For the HDAC1 enzyme activity test, human recombinant HDAC1 (BML-SE456) was used as an enzyme source, and Fluor de Lys®-“SIRT1 (BNL-KI177) was used as a substrate. A 5-fold dilution of the compound was seeded into a 96-well plate, and then 0.3 μg of the enzyme and 10 μM of the substrate were added to each well of the plate and allowed to react at 30° C. for 60 minutes. Then, Fluor de Lys®-Developer II (BML-KI176) was added thereto and allowed to react for 30 minutes, after which the fluorescence value (Ex 360, Em 460) was measured using a multi-plate reader (Flexstation 3, Molecular Device). The HDAC6 enzyme was tested using human recombinant HDAC6 (382180) from Calbiochem, according to the same protocol as the HDAC1 enzyme activity test method. Based on the resulting values, each IC50 value was calculated using GraphPad Prism4.0 program.

Turning to `CCC(=O)N1CCC(C(=O)N(Cc2ccc(-c3nnc(C(F)F)o3)cc2F)c2ccccc2)CC1` [Compound 11212, N-(4-(5-(difluoromethyl)-1,3,4-oxadiazol-2-yl)-2-fluorobenzyl)-N-phenyl-1-propionylpiperidine-4-carboxamide], the “HDAC6 selectivity (fold)” value turned out to be 1124 fold and the concentration for half-maximal inhibition (IC50) came to 89 nM.
The corresponding values for `CC(C)C(=O)N1CCC(C(=O)N(Cc2ccc(-c3nnc(C(F)F)o3)cc2F)c2ccccc2)CC1` [Compound 11213, N-(4-(5-(difluoromethyl)-1,3,4-oxadiazol-2-yl)-2-fluorobenzyl)-1-isobutyryl-N-phenylpiperidine-4-carboxamide] are 781 fold and 128 nM.
The corresponding values for `O=C(C1CCN(C(=O)C(F)(F)F)CC1)N(Cc1ccc(-c2nnc(C(F)F)o2)cc1F)c1ccccc1` [Compound 11214, N-(4-(5-(difluoromethyl)-1,3,4-oxadiazol-2-yl)-2-fluorobenzyl)-N-phenyl-1-(2,2,2-trifluoroacetyl)piperidine-4-carboxamide] are 714 fold and 140 nM.
Regarding `CS(=O)(=O)N1CCC(C(=O)N(Cc2ccc(-c3nnc(C(F)F)o3)cc2F)c2ccccc2)CC1` [Compound 11215, N-(4-(5-(difluoromethyl)-1,3,4-oxadiazol-2-yl)-2-fluorobenzyl)-1-(methylsulfonyl)-N-phenylpiperidine-4-carboxamide], the “HDAC6 selectivity (fold)” value is 1667 fold and the IC50 stood at 60 nM.
On the same counts, the results for `CN1CC(C(=O)N(Cc2ccc(-c3nnc(C(F)(F)F)o3)cc2F)c2ccccc2)C1` [Compound 11232, N-(2-fluoro-4-(5-(trifluoromethyl)-1,3,4-oxadiazol-2-yl)benzyl)-1-methyl-N-phenylazetidine-3-carboxamide] are 1923 fold and 52 nM.
The corresponding values for `CCN1CC(C(=O)N(Cc2ccc(-c3nnc(C(F)(F)F)o3)cc2F)c2ccccc2)C1` [Compound 11233, 1-ethyl-N-(2-fluoro-4-(5-(trifluoromethyl)-1,3,4-oxadiazol-2-yl)benzyl)-N-phenylazetidine-3-carboxamide] are 2703 fold and 37 nM.
On the same counts, the results for `CC(=O)N1CC(C(=O)N(Cc2ccc(-c3nnc(C(F)(F)F)o3)cc2F)c2ccccc2)C1` [Compound 11234, 1-acetyl-N-(2-fluoro-4-(5-(trifluoromethyl)-1,3,4-oxadiazol-2-yl)benzyl)-N-phenylazetidine-3-carboxamide] are 1754 fold and 57 nM.
`CCC(=O)N1CC(C(=O)N(Cc2ccc(-c3nnc(C(F)(F)F)o3)cc2F)c2ccccc2)C1` [Compound 11235, N-(2-fluoro-4-(5-(trifluoromethyl)-1,3,4-oxadiazol-2-yl)benzyl)-N-phenyl-1-propionylazetidine-3-carboxamide]: the “HDAC6 selectivity (fold)” value was 1538 fold and the 50% inhibitory concentration (IC50) was found to be 65 nM.
On to `CC(C)C(=O)N1CC(C(=O)N(Cc2ccc(-c3nnc(C(F)(F)F)o3)cc2F)c2ccccc2)C1` [Compound 11236, N-(2-fluoro-4-(5-(trifluoromethyl)-1,3,4-oxadiazol-2-yl)benzyl)-1-isobutyryl-N-phenylazetidine-3-carboxamide], for which the “HDAC6 selectivity (fold)” value is reported as 1370 fold and the 50% inhibitory concentration (IC50) was 73 nM.
The corresponding values for `CS(=O)(=O)N1CC(C(=O)N(Cc2ccc(-c3nnc(C(F)(F)F)o3)cc2F)c2ccccc2)C1` [Compound 11237, N-(2-fluoro-4-(5-(trifluoromethyl)-1,3,4-oxadiazol-2-yl)benzyl)-1-(methanesulfonyl)-N-phenylazetidine-3-carboxamide] are 2381 fold and 42 nM.
On to `CN1CC(C(=O)N(Cc2ccc(-c3nnc(C(F)F)o3)cc2F)c2ccccc2)C1` [Compound 11238, N-(4-(5-(difluoromethyl)-1,3,4-oxadiazol-2-yl)-2-fluorobenzyl)-1-methyl-N-phenylazetidine-3-carboxamide], for which the “HDAC6 selectivity (fold)” value was found to be 2222 fold and the concentration for half-maximal inhibition (IC50) is 45 nM.
Consider `CCN1CC(C(=O)N(Cc2ccc(-c3nnc(C(F)F)o3)cc2F)c2ccccc2)C1` [Compound 11239, N-(4-(5-(difluoromethyl)-1,3,4-oxadiazol-2-yl)-2-fluorobenzyl)-1-ethyl-N-phenylazetidine-3-carboxamide], for which the “HDAC6 selectivity (fold)” value was found to be 3846 fold and the IC50 was 26 nM.
Regarding `CC(C)N1CC(C(=O)N(Cc2ccc(-c3nnc(C(F)F)o3)cc2F)c2ccccc2)C1` [Compound 11240, N-(4-(5-(difluoromethyl)-1,3,4-oxadiazol-2-yl)-2-fluorobenzyl)-1-isopropyl-N-phenylazetidine-3-carboxamide], the “HDAC6 selectivity (fold)” value is recorded as 2439 fold and the IC50 is 41 nM.
On to `CC(=O)N1CC(C(=O)N(Cc2ccc(-c3nnc(C(F)F)o3)cc2F)c2ccccc2)C1` [Compound 11241, 1-acetyl-N-(4-(5-(difluoromethyl)-1,3,4-oxadiazol-2-yl)-2-fluorobenzyl)-N-phenylazetidine-3-carboxamide], for which the “HDAC6 selectivity (fold)” value is 2857 fold and the half-inhibitory concentration (IC50) amounted to 35 nM.
With `CCC(=O)N1CC(C(=O)N(Cc2ccc(-c3nnc(C(F)F)o3)cc2F)c2ccccc2)C1` [Compound 11242, N-(4-(5-(difluoromethyl)-1,3,4-oxadiazol-2-yl)-2-fluorobenzyl)-N-phenyl-1-propionylazetidine-3-carboxamide], the “HDAC6 selectivity (fold)” value is recorded as 2564 fold and the 50% inhibitory concentration (IC50) is 39 nM.
For the compound `CC(C)C(=O)N1CC(C(=O)N(Cc2ccc(-c3nnc(C(F)F)o3)cc2F)c2ccccc2)C1` [Compound 11243, N-(4-(5-(difluoromethyl)-1,3,4-oxadiazol-2-yl)-2-fluorobenzyl)-1-isobutyryl-N-phenylazetidine-3-carboxamide], the “HDAC6 selectivity (fold)” value turned out to be 3125 fold and the IC50 was determined as 32 nM.
For the compound `O=C(C1CN(C(=O)C(F)(F)F)C1)N(Cc1ccc(-c2nnc(C(F)F)o2)cc1F)c1ccccc1` [Compound 11244, N-(4-(5-(difluoromethyl)-1,3,4-oxadiazol-2-yl)-2-fluorobenzyl)-N-phenyl-1-(2,2,2-trifluoroacetyl)azetidine-3-carboxamide], the “HDAC6 selectivity (fold)” value amounted to 1587 fold and the half-inhibitory concentration (IC50) came out at 63 nM.
On the same counts, the results for `CS(=O)(=O)N1CC(C(=O)N(Cc2ccc(-c3nnc(C(F)F)o3)cc2F)c2ccccc2)C1` [Compound 11245, N-(4-(5-(difluoromethyl)-1,3,4-oxadiazol-2-yl)-2-fluorobenzyl)-1-(methylsulfonyl)-N-phenylazetidine-3-carboxamide] are 2128 fold and 47 nM.
In the case of `CC(=O)N(Cc1ccc(-c2nnc(C(F)(F)F)o2)cc1F)c1ccccc1` [Compound 11246, N-(2-fluoro-4-(5-(trifluoromethyl)-1,3,4-oxadiazol-2-yl)benzyl)-N-phenylacetamide], the “HDAC6 selectivity (fold)” value is 758 fold and the IC50 stood at 132 nM.
Consider `CC(=O)N(Cc1ccc(-c2nnc(C(F)F)o2)cc1F)c1ccccc1` [Compound 11247, N-(4-(5-(difluoromethyl)-1,3,4-oxadiazol-2-yl)-2-fluorobenzyl)-N-phenylacetamide], for which the “HDAC6 selectivity (fold)” value stood at 1887 fold and the IC50 was found to be 53 nM.
